Results: ChEMBL document CHEMBL1201862, “PubChem BioAssay data set” (2004)
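Growth conditions: 96-well plates. Treatment: test compound, 48 hours, 5 concentrations. Analysis: linear interpolation between bracketing concentrations; unreached endpoints set to highest concentration. GI50: concentration for 50% inhibition of growth.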 Active and inactive are the calls of the source. Rule as the data show it: active = GI50 up to about 1.1 µM and inactive = higher.

Key:
Assay in all cases: growth of human tumour cells (NCI), 48 h
786-0 = system: 786-0
A549 = system: A549
ACHN = system: ACHN
COLO 205 = system: COLO 205
HT-29 = system: HT-29
KM12 = system: KM12
MOLT-4 = system: MOLT-4
NCI-H23 = system: NCI-H23
NCI-H460 = system: NCI-H460
SNB-19 = system: SNB-19
SNB-75 = system: SNB-75
SW-620 = system: SW-620
UACC-257 = system: UACC-257
UACC-62 = system: UACC-62
A498 = system: A498

Row | Structure (SMILES) | GI50 (786-0) | GI50 (A549) | GI50 (ACHN) | GI50 (COLO 205) | GI50 (HT-29) | GI50 (KM12) | GI50 (MOLT-4) | GI50 (NCI-H23) | GI50 (NCI-H460) | GI50 (SNB-19) | GI50 (SNB-75) | GI50 (SW-620) | GI50 (UACC-257) | GI50 (UACC-62) | GI50 (A498)
1 | COc1ccc(CCc2cc(OC)c(O)c(OC)c2)cc1 | > 100 µM (inactive) | 47.1 µM (inactive) | 80.5 µM (inactive) | > 100 µM (inactive) | 41 µM (inactive) | 58.2 µM (inactive) | 35.7 µM (inactive) | 37.2 µM (inactive) | 82 µM (inactive) | 98.6 µM (inactive) | 29.4 µM (inactive) | 37.4 µM (inactive) | 29.3 µM (inactive) | 69 µM (inactive) | –
2 | NC(=O)c1ccc([N+](=O)[O-])cc1 | > 100 µM (inactive) | > 100 µM (inactive) | – | > 100 µM (inactive) | > 100 µM (inactive) | > 100 µM (inactive) | > 100 µM (inactive) | > 100 µM (inactive) | > 100 µM (inactive) | > 100 µM (inactive) | > 100 µM (inactive) | > 100 µM (inactive) | > 100 µM (inactive) | > 100 µM (inactive) | > 100 µM (inactive)
3 | O=C(O)C1CCC(=O)N1C(=O)COc1cc(Cl)c(Cl)cc1Cl (configuration not stated) | – | > 100 µM (inactive) | > 100 µM (inactive) | > 100 µM (inactive) | > 100 µM (inactive) | > 100 µM (inactive) | – | > 100 µM (inactive) | > 100 µM (inactive) | > 100 µM (inactive) | 40.6 µM (inactive) | > 100 µM (inactive) | > 100 µM (inactive) | > 100 µM (inactive) | > 100 µM (inactive)
4 | CCCCC1CC(c2ccc(Cl)cc2)=NO1 (configuration not stated) | > 100 µM (inactive) | > 100 µM (inactive) | > 100 µM (inactive) | > 100 µM (inactive) | > 100 µM (inactive) | > 100 µM (inactive) | > 100 µM (inactive) | > 100 µM (inactive) | > 100 µM (inactive) | > 100 µM (inactive) | > 100 µM (inactive) | > 100 µM (inactive) | > 100 µM (inactive) | > 100 µM (inactive) | > 100 µM (inactive)
5 | N#Cc1ccccc1NC(=O)C(=O)C(C(=O)c1ccccc1F)C1OC(=O)c2ccccc21 (configuration not stated) | – | 70.8 µM (inactive) | 80.7 µM (inactive) | 37.7 µM (inactive) | 40 µM (inactive) | 41.2 µM (inactive) | 25 µM (inactive) | 40.4 µM (inactive) | 41.1 µM (inactive) | 32.4 µM (inactive) | 38.4 µM (inactive) | > 100 µM (inactive) | 58.2 µM (inactive) | 41 µM (inactive) | > 100 µM (inactive)
6 | Cn1nc(-c2ccccc2)c(C(=O)/C=C/c2ccc(F)cc2)c(N2CCCC2)c1=O | 13 µM (inactive) | 15.1 µM (inactive) | 24.1 µM (inactive) | 15.1 µM (inactive) | 4.99 µM (inactive) | – | 4.41 µM (inactive) | 10.9 µM (inactive) | 21.7 µM (inactive) | 17.2 µM (inactive) | – | 15.6 µM (inactive) | – | 12.7 µM (inactive) | –
7 | COCCN1C2=CCCCC2=Nc2c(N)nc(N)nc21 | > 100 µM (inactive) | > 100 µM (inactive) | > 100 µM (inactive) | > 100 µM (inactive) | > 100 µM (inactive) | > 100 µM (inactive) | > 100 µM (inactive) | > 100 µM (inactive) | > 100 µM (inactive) | > 100 µM (inactive) | > 100 µM (inactive) | – | > 100 µM (inactive) | > 100 µM (inactive) | > 100 µM (inactive)
8 | Cc1ccccc1-n1c(C)nc2c1C(=O)c1ccccc1C2=O | 44.8 µM (inactive) | 54.6 µM (inactive) | 53.3 µM (inactive) | – | 37.2 µM (inactive) | 58.9 µM (inactive) | 32 µM (inactive) | 35.4 µM (inactive) | 36.1 µM (inactive) | 55.5 µM (inactive) | – | 40.5 µM (inactive) | 35.2 µM (inactive) | 47.1 µM (inactive) | > 100 µM (inactive)
9 | CC#CC1C2CCCC1(CSc1ccccc1)NC(=O)O2 (configuration not stated) | > 100 µM (inactive) | > 100 µM (inactive) | > 100 µM (inactive) | > 100 µM (inactive) | > 100 µM (inactive) | > 100 µM (inactive) | 30.3 µM (inactive) | > 100 µM (inactive) | > 100 µM (inactive) | > 100 µM (inactive) | > 100 µM (inactive) | > 100 µM (inactive) | > 100 µM (inactive) | > 100 µM (inactive) | > 100 µM (inactive)
10 | C=C1C(=O)OC2/C=C(\C)C3OC3/C=C(/C(=O)OC)C(O)C(OC(=O)C3(C)OC3C)C12 (configuration not stated) | 1.74 µM (inactive) | 15.3 µM (inactive) | 3.14 µM (inactive) | 1.27 µM (inactive) | 1.65 µM (inactive) | 2.95 µM (inactive) | 0.681 µM (active) | 1.85 µM (inactive) | 5.41 µM (inactive) | – | 13.5 µM (inactive) | 0.959 µM (active) | 1.53 µM (inactive) | 1.01 µM (active) | 7.64 µM (inactive)
